Test results from patent publication US12012467B2, “Small molecule DCN1 inhibitors and therapeutic methods using the same” (THE REGENTS OF THE UNIVERSITY OF MICHIGAN, priority 2017, dated 2024).
Where a name gives a salt, the structure may show the parent alone. Read-outs that look alike come from different tables or passages of the source. Square brackets hold non-standard residues; d marks the D form. Peptide text beside a SMILES is read from it. * marks the point of attachment. Ala(6-iPr-benzothiazol-2-yl) = CC(C)c1ccc2nc(C[C@H](N)C(=O)O)sc2c1; 2Nal = N[C@@H](Cc1ccc2ccccc2c1)C(=O)O; Gly(cPent) = N[C@H](C(=O)O)C1CCCC1; dLac = C[C@@H](O)C(=O)O; NHBn = c1ccc(CN*)cc1; Propionyl = CCC(=O)*; Tfa = O=C(C(F)(F)F)*; Butyryl = CCCC(=O)*

Target: DCN1 (Homo sapiens (Human), UniProt Q96GG9)
Experiment: Competitive FP binding assay
Procedure: Competitive FP Binding Assay
The Fluorescence Polarization (FP) competitive binding assays were performed to accurately determine the binding affinities of our DCN1 inhibitors. […] Serial dilutions of proteins were mixed with 46 to a final volume of 200 μl in the assay buffer (100 mM phosphate buffer, pH=6.5, with 0.02% Tween-20 and 2% DMSO). Final probe concentration was 5 nM for both assays. Plates were incubated at room temperature for 30 minutes with gentle shaking to assure equilibrium.
Pure proteins were derived from the same expression and purification protocols. Plasmids were transformed into Rosetta2 cells, the cells were grown in Terrific Broth at 37° C. to an O.D.600>1.0 and induced with 0.4 mM Isopropyl (3-D-1-thiogalactopyranoside overnight at 20° C. The pelleted cells were resuspended in lysis buffer containing 25 mM Tris-HCl, pH 7.5, 200 mM NaCl and protease inhibitors, sonicated and centrifuged at 34,000×g for 45 minutes to remove debris. Cleared lysate was incubated with Ni-NTA resin (Qiagen) prewashed with lysis buffer, for 1 hr at 4° C. The matrix was loaded into a column then washed with 25 mM Tris-HCl, pH 7.5, 200 mM NaCl and 10 mM imidazole. Protein was eluted with 25 mM Tris-HCl, pH 7.5, 200 mM NaCl and 300 mM imidazole, concentrated and applied to a Superdex 75 (GE Healthcare) column pre-equilibrated with 25 mM Tris pH 7.5, 200 mM NaCl and 1 mM DTT. For DCN2-5, the N-terminal His6 tag was removed prior to gel filtration. Tag removal was achieved through incubation with TEV protease during overnight dialysis against 25 mM Tris pH 7.5, 200 mM NaCl and 1 mM DTT and a second Ni-NTA column. DCN2-5 proteins were stored at −80° C. in 1 mg/mL fractions containing 5% glycerol. The uncleaved DCN1 protein was stored at −80° C. without glycerol.

[1] = bounds given in μM, read-out: Binding affinity to DCN1 (IC50)
[2] = read-out: Binding affinity to DCN1 (IC50 (nM))

Sequence of DCN1 (Q96GG9 58-259): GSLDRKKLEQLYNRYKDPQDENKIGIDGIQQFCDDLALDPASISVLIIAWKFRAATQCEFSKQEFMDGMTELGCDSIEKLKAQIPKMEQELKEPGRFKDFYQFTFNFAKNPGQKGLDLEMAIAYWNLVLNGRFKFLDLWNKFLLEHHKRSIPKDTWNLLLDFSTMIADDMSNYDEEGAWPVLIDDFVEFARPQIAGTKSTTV

Row | SMILES | IC50 [2] [µM] | also measured
1 | CC[C@H](C)[C@H](NC(=O)[C@H](Cc1ccc2ccccc2c1)NC(=O)[C@@H](C)O)C(=O)N[C@@H](CCCCN)C(=O)N[C@@H](CC(C)C)C(N)=O [Example 167] (H-[dLac][2Nal]IKL-NH2) | – | IC50 [1]: > 10 µM
2 | CCC(=O)N[C@@H](Cc1nc2ccc(CC)cc2s1)C(=O)N[C@H](C(=O)N[C@@H](CCCCN)C(=O)NC(c1ccccc1)c1ccccc1)C1CCCC1 [Example 174] | 0.0775 | –
3 | CC(C)C(=O)N[C@@H](Cc1nc2ccc(C(C)C)cc2s1)C(=O)NCCN [Example 95] | – | IC50 [1]: > 10 µM
4 | CCC(=O)N[C@@H](Cc1nc2ccc(C)cc2s1)C(=O)N[C@H](C(=O)N[C@@H](CCCCN)C(=O)N[C@@H]1CCOc2ccccc21)C1CCOCC1 [Example 181] | 0.176 | –
5 | CCC(=O)N[C@@H](Cc1nc(C)n(-c2ccccc2)n1)C(=O)N[C@H](CN)Cc1ccccc1 [DI-532] | – | IC50 [1]: > 10 µM
6 | CCC(=O)N[C@@H](Cc1nc2ccc(C(C)C)cc2s1)C(=O)N[C@H](CNC(=O)NC1CCNCC1)C1CCCCC1 [DI-749] | 0.0529 | –
7 | CCC(=O)N[C@@H](Cc1ccc2ccccc2c1)C(=O)N[C@H](C(=O)N[C@@H](CCCCN(C)C)C(=O)NC(c1ccc(F)cc1)c1ccc(F)cc1)C1CCCC1 [Example 140] | 0.483 | –
8 | CCC(=O)N[C@H](CNC(=O)Nc1ccccc1)Cc1nc2ccc(Cl)cc2s1 [Example 258] | 3.92 | –
9 | CCC(=O)N[C@@H](Cc1nc2ccc(C(C)C)cc2s1)C(=O)N[C@H](C(=O)N[C@@H](CCCCN)C(=O)N[C@@H](CC(C)C)C(N)=O)[C@@H](C)CC [Example 273] (Propionyl-[Ala(6-iPr-benzothiazol-2-yl)]IKL-NH2) | 0.051 | –
10 | CCC(=O)N[C@H](CNC(=O)C1(N)CCC1)Cc1nc2ccc(C(C)C)cc2s1 [Example 113] | 4.11 | –
11 | CCC(=O)N[C@@H](Cc1cn(-c2cccc(Cl)c2)cn1)C(=O)N[C@H](CN)Cc1ccccc1 [Example 239] | – | IC50 [1]: > 10 µM
12 | CCC(=O)N[C@@H](Cc1nc2ccc(C(C)C)cc2s1)C(=O)N[C@H](CNC(=O)c1cn(C)cn1)C1CCCCC1 [Example 66] | 0.299 | –
13 | CCC(=O)N[C@@H](Cc1nc(C)c(-c2cccc(Cl)c2)s1)C(=O)N[C@H](C(=O)N[C@@H](CCCCN)C(=O)N[C@@H]1CCOc2ccccc21)C1CCOCC1 [Example 207] | 0.139 | –
14 | CCCC(=O)N[C@@H](Cc1nc2ccc(C(C)C)cc2s1)C(=O)N[C@H](C(=O)N[C@@H](CCCCN)C(=O)N[C@@H](CC(C)C)C(N)=O)[C@@H](C)CC [Example 276] (Butyryl-[Ala(6-iPr-benzothiazol-2-yl)]IKL-NH2) | 0.109 | –
15 | CCC(=O)N[C@@H](Cc1nc2ccc(CC)cc2s1)C(=O)N[C@H](CN)[C@@H](C)CC [Example 215] | 0.23 | –
16 | CCC(=O)N[C@H](CNC(=O)C1(N)CCOCC1)Cc1nc2ccc(C(C)C)cc2s1 [Example 112] | 5.06 | –
17 | CCC(=O)N[C@@H](Cc1ccc2ccccc2c1)C(=O)N[C@H](C(=O)N[C@@H](CCCCN)C(=O)NCc1ccccc1)[C@@H](C)CC [Example 10] (Propionyl-[2Nal]-Ile-Lys-NHBn) | 3.9 | –
18 | CC[C@H](C)[C@@H](CN)NC(=O)[C@H](Cc1nc2ccc(C(C)C)cc2s1)NC=O [Example 48, (S)—N-((2S,3S)-1-amino-3-methylpentan-2-yl)-2-formamido-3-(6-isopropylbenzo[d]thiazol-2-yl)propanamide] | – | IC50 [1]: > 5 µM
19 | CCC(=O)N[C@@H](Cc1ccc2ccccc2c1)C(=O)N[C@H](C(=O)N[C@@H](CCCCN)C(=O)NC(c1ccc(F)cc1)c1ccc(F)cc1)[C@@H](C)CC [Example 128] | 0.321 ± 0.032 | –
20 | CCC(=O)N[C@@H](Cc1nc2ccc(Cl)cc2s1)C(=O)N[C@H](C(=O)N[C@@H](CCCCN)C(=O)NC(c1ccccc1)c1ccccc1)C1CCCC1 [Example 30] | 0.193 | –
21 | CCC(=O)N[C@@H](Cc1nc2ccc(C(C)C)cc2s1)C(=O)N[C@H](C(=O)N[C@@H](CCCCN)C(=O)N[C@@H](CC(C)C)C(N)=O)C1CCCC1 [Example 285] (Propionyl-[Ala(6-iPr-benzothiazol-2-yl)][Gly(cPent)]KL-NH2) | < 0.1 | –
22 | CC[C@H](C)[C@H](NC(=O)[C@H](Cc1ccc2ccccc2c1)NC(=O)C(F)(F)F)C(=O)N[C@@H](CCCCN)C(=O)N[C@@H](CC(C)C)C(N)=O [Example 137] (Tfa-[2Nal]IKL-NH2) | – | Binding affinity to DCN1 (IC50 (nM)): precipitation
23 | CC[C@H](C)[C@H](NC(=O)[C@@H](N)Cc1ccc2ccccc2c1)C(=O)N[C@@H](CCCCN)C(=O)N[C@@H](CC(C)C)C(N)=O [Example 142] (H-[2Nal]IKL-NH2) | – | IC50 [1]: > 10 µM
24 | CCC(=O)N[C@@H](Cc1nc2ccc(Cl)cc2s1)CN(Cc1ccccc1)Cc1ccccc1 [Example 259] | – | IC50 [1]: > 10 µM
25 | CCC(=O)N[C@@H](Cc1nc(C)c(-c2ccncc2)s1)C(=O)N[C@H](CN)Cc1ccccc1 [Example 230] | – | IC50 [1]: > 10 µM
26 | CCC(=O)N[C@@H](Cc1ccc2ccccc2c1)C(=O)N[C@H](C(=O)N[C@@H](CCCCN)C(=O)NC(c1ccccc1)c1ccccc1)C1CCCCC1 [Example 20] | 0.341 | –
27 | CCC(=O)N[C@@H](Cc1cccc(C)n1)C(=O)N[C@H](C(=O)N[C@@H](CCCCN)C(=O)NC(c1ccccc1)c1ccccc1)[C@@H](C)CC [Example 134] | – | IC50 [1]: > 10 µM
28 | CCC(=O)N[C@@H](Cc1nc(C)c(-c2ccc(C#N)cc2)s1)C(=O)N[C@H](CN)Cc1ccccc1 [Example 105] | – | IC50 [1]: > 10 µM

Further lines, with some results ahead:

Row | IC50 [2] [µM] | SMILES | also measured
29 | 0.886 | CCC(=O)N[C@@H](Cc1nc(C)c(C(C)C)s1)C(=O)N[C@H](C(=O)N[C@@H](CCCCN)C(=O)N[C@@H]1CCOc2ccccc21)C1CCOCC1 [Example 187] | –
30 | 0.255 ± 0.029 | CC[C@H](C)[C@@H](CN)NC(=O)[C@H](Cc1nc2ccc(C(C)C)cc2s1)NC(=O)C(C)C [Example 50, (S)—N-((2S,3S)-1-amino-3-methylpentan-2-yl)-2-isobutyramido-3-(6-isopropylbenzo[d]thiazol-2-yl)propanamide] | –
31 | 0.0659 | CCC(=O)N[C@@H](Cc1nc2ccc(C(C)C)cc2s1)C(=O)N[C@H](CNC(=O)C1CCN(CCO)CC1)C1CCCCC1 [Example 72] | –
32 | 0.559 | CCC(=O)N[C@@H](Cc1nc2ccc(Cl)cc2s1)C(=O)N[C@H](CN)C1CCCC1 [Example 216] | –
33 | 0.251 | CCC(=O)N[C@@H](Cc1nc2ccc(Cl)cc2s1)C(=O)N[C@@H](Cc1ccccn1)C(=O)N[C@@H](CCCCN)C(=O)N[C@@H]1CCOc2ccccc21 [Example 202] | –
34 | 0.128 | CCC(=O)N[C@@H](Cc1nc2ccc(C(C)C)cc2s1)C(=O)N[C@H](CNC(=O)c1ccncc1)C1CCCCC1 [Example 61] | –
35 | 0.203 | CCC(=O)N[C@@H](Cc1nc2ccc(Cl)cc2s1)C(=O)N[C@@H](C[C@H]1CC[C@H](CN)CC1)C(=O)N[C@@H](CCCCN)C(=O)N[C@@H]1CCOc2ccccc21 [Example 200] | –
36 | 0.704 | CCC(=O)N[C@@H](Cc1nc(C)c(-c2cccc(Cl)c2)s1)C(=O)N[C@H](CN)C1CCCCC1 [Example 107] | –
37 | 0.169 | CCC(=O)N[C@@H](Cc1nc2ccc(CC)cc2s1)C(=O)N[C@H](C(=O)N[C@@H](CCCCN)C(=O)N[C@@H]1CCOc2ccccc21)C1CCOCC1 [Example 186] | –
38 | 0.0556 | CCC(=O)N[C@@H](Cc1nc2ccc(C(C)C)cc2s1)C(=O)N[C@@H](Cc1ccccc1)C(=O)N[C@@H](CCCCN)C(=O)N[C@@H](CC(C)C)C(N)=O [Example 290] (Propionyl-[Ala(6-iPr-benzothiazol-2-yl)]FKL-NH2) | –
39 | 0.477 | CCC(=O)N[C@H](CNC(=O)C1(N)CCCCC1)Cc1nc2ccc(Cl)cc2s1 [Example 119] | –
